Assay results taken from ChEMBL document CHEMBL1201862, “PubChem BioAssay data set” (2004).
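1) Cells in 96-well plates. 2) Compound, 48 h, 5 concentrations. 3) Linear interpolation between surrounding doses. 4) Unreached endpoint = highest concentration. GI50 marks 50% less growth.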 Activity calls are given as the source filed them. Rule as the data show it: active = GI50 up to about 1.1 µM and inactive = higher.

Columns and labels:
Test in all cases: NCI-60 cell line screen, 48 h
MCF7 = test system: MCF7
M14 = test system: M14
NCI/ADR-RES = test system: NCI/ADR-RES
SK-MEL-28 = test system: SK-MEL-28
A549 = test system: A549
SK-MEL-2 = test system: SK-MEL-2
K562 = test system: K562
OVCAR-8 = test system: OVCAR-8
T47D = test system: T47D
SNB-75 = test system: SNB-75
NCI-H226 = test system: NCI-H226
BT-549 = test system: BT-549
UO-31 = test system: UO-31
DU-145 = test system: DU-145
SF-539 = test system: SF-539
HCC 2998 = test system: HCC 2998
LOX IMVI = test system: LOX IMVI
786-0 = test system: 786-0
U-251 = test system: U-251
MOLT-4 = test system: MOLT-4

Measured: GI50

N#Cc1c2c(c(Nc3ccc(F)cc3)n3c1nc1ccccc13)CCC2
inactive: MCF7 3.32 µM | M14 5.89 µM | NCI/ADR-RES 5.27 µM | SK-MEL-28 9.27 µM | A549 5.93 µM | SK-MEL-2 14.3 µM | K562 9.44 µM | OVCAR-8 2.36 µM | T47D 7.8 µM | SNB-75 6.18 µM | NCI-H226 6.81 µM | BT-549 7.19 µM | UO-31 2.45 µM | DU-145 3.61 µM | SF-539 3.46 µM | HCC 2998 18.4 µM | LOX IMVI 2.13 µM | 786-0 1.78 µM | U-251 2.84 µM | MOLT-4 7.73 µM

COc1ccc(/C=C/C(=O)Oc2cc(O)cc(O)c2)cc1
inactive: MCF7 19.5 µM | M14 41.4 µM | NCI/ADR-RES 34.4 µM | SK-MEL-28 > 100 µM | A549 34.8 µM | SK-MEL-2 > 100 µM | K562 22.5 µM | OVCAR-8 28.2 µM | T47D 43.5 µM | SNB-75 38.1 µM | NCI-H226 > 100 µM | BT-549 49.8 µM | UO-31 37.6 µM | DU-145 56.6 µM | SF-539 95.1 µM | HCC 2998 33 µM | LOX IMVI 20.1 µM | 786-0 56.9 µM | U-251 24.6 µM | MOLT-4 11.3 µM

O=C1NC(N2CCOCC2)=N/C1=C\c1ccc(O)cc1
inactive: MCF7 > 100 µM | M14 > 100 µM | NCI/ADR-RES > 100 µM | SK-MEL-28 > 100 µM | A549 > 100 µM | SK-MEL-2 > 100 µM | OVCAR-8 > 100 µM | T47D > 100 µM | SNB-75 15.7 µM | NCI-H226 > 100 µM | BT-549 > 100 µM | UO-31 > 100 µM | DU-145 > 100 µM | SF-539 > 100 µM | HCC 2998 > 100 µM | LOX IMVI > 100 µM | 786-0 > 100 µM | U-251 > 100 µM | MOLT-4 > 100 µM

O=C1c2ccccc2S(=O)(=O)c2c1cccc2[N+](=O)[O-]
inactive: MCF7 1.25 µM | M14 1.61 µM | NCI/ADR-RES 2.38 µM | SK-MEL-28 2 µM | A549 4.7 µM | SK-MEL-2 5.85 µM | K562 > 10 µM | OVCAR-8 2.1 µM | T47D 2.37 µM | SNB-75 3.42 µM | NCI-H226 > 7.26 µM | BT-549 3.45 µM | UO-31 2 µM | DU-145 4.79 µM | SF-539 1.94 µM | HCC 2998 5.77 µM | LOX IMVI 2.14 µM | 786-0 1.52 µM | U-251 2.65 µM | MOLT-4 1.85 µM

CCC(=O)NI1OC(=O)c2ccccc21
inactive: MCF7 > 100 µM | M14 > 100 µM | NCI/ADR-RES > 100 µM | SK-MEL-28 > 100 µM | A549 > 100 µM | SK-MEL-2 > 100 µM | K562 48.5 µM | OVCAR-8 > 100 µM | T47D > 100 µM | SNB-75 > 100 µM | NCI-H226 > 100 µM | BT-549 > 100 µM | UO-31 > 100 µM | DU-145 > 100 µM | SF-539 > 100 µM | HCC 2998 > 100 µM | LOX IMVI > 100 µM | 786-0 > 100 µM | U-251 > 100 µM | MOLT-4 > 100 µM

CC(=O)OC1CC[C@@]2(C)C(=CC[C@@H]3[C@@H]2CC[C@]2(C)Nc4c(cnn4-c4ccc(F)cc4)C[C@@H]32)C1 (some centres not stated)
inactive: MCF7 > 34.8 µM | M14 30.5 µM | NCI/ADR-RES 60.1 µM | SK-MEL-28 15.1 µM | A549 24.3 µM | SK-MEL-2 17.9 µM | K562 21.4 µM | OVCAR-8 40 µM | T47D 14.9 µM | SNB-75 16.8 µM | NCI-H226 59.7 µM | BT-549 17.3 µM | UO-31 12.6 µM | DU-145 45.5 µM | SF-539 5.33 µM | HCC 2998 > 100 µM | LOX IMVI 7.85 µM | 786-0 3.26 µM | U-251 7.43 µM | MOLT-4 2.02 µM

Nc1c(-c2ccccc2)c2ccc([N+](=O)[O-])cc2c(=O)n1-c1cccc(C(=O)O)c1
inactive: MCF7 > 100 µM | M14 > 100 µM | NCI/ADR-RES > 100 µM | SK-MEL-28 > 100 µM | A549 > 100 µM | SK-MEL-2 > 100 µM | K562 > 100 µM | OVCAR-8 > 100 µM | T47D > 100 µM | SNB-75 > 100 µM | NCI-H226 > 100 µM | BT-549 51.9 µM | UO-31 > 100 µM | DU-145 > 100 µM | SF-539 > 100 µM | HCC 2998 > 100 µM | LOX IMVI > 100 µM | 786-0 > 10 µM | U-251 > 100 µM | MOLT-4 > 100 µM

CC1(C)[C@@H]2CC[C@@]1(C)CN(CCC[N+](C)(C)C)C2
inactive: MCF7 > 100 µM | M14 > 100 µM | NCI/ADR-RES > 100 µM | SK-MEL-28 > 100 µM | A549 > 100 µM | SK-MEL-2 > 100 µM | K562 > 100 µM | OVCAR-8 > 100 µM | T47D > 100 µM | SNB-75 > 100 µM | NCI-H226 > 100 µM | BT-549 > 100 µM | UO-31 > 100 µM | DU-145 > 100 µM | SF-539 > 100 µM | HCC 2998 > 100 µM | LOX IMVI > 100 µM | 786-0 > 100 µM | U-251 > 100 µM | MOLT-4 > 100 µM

c1ccc(-c2nc3ccccc3n3c(CN4CCCCC4)nnc23)cc1
inactive: MCF7 > 100 µM | M14 > 100 µM | NCI/ADR-RES > 100 µM | SK-MEL-28 > 100 µM | A549 > 100 µM | SK-MEL-2 35.1 µM | K562 > 100 µM | OVCAR-8 99.3 µM | T47D 54.5 µM | SNB-75 19.2 µM | NCI-H226 > 100 µM | BT-549 80.2 µM | DU-145 > 100 µM | SF-539 51.3 µM | HCC 2998 > 100 µM | LOX IMVI > 100 µM | 786-0 37.3 µM | U-251 47 µM | MOLT-4 > 100 µM

O=C(OC1C=C=CS(=O)(=O)CC#C/C=C\1)c1cnc2ccccc2n1 (configuration not stated)
inactive: MCF7 27.5 µM | M14 > 100 µM | NCI/ADR-RES > 100 µM | SK-MEL-28 > 100 µM | A549 > 100 µM | SK-MEL-2 > 100 µM | K562 61.4 µM | OVCAR-8 > 100 µM | T47D > 100 µM | SNB-75 > 100 µM | NCI-H226 > 100 µM | BT-549 > 100 µM | UO-31 76.6 µM | DU-145 > 100 µM | SF-539 > 100 µM | HCC 2998 > 100 µM | LOX IMVI 29.8 µM | U-251 84.1 µM | MOLT-4 50.7 µM
